Holding throughout (assay type): in vivo
The test system of assay [1] is Japanese bulrush (Scirpus juncoides Roxb.). Put plainly: Test Example 1: herbicidal effect by soil application to paddy field. The following applies: paddy field soil application; active ingredient 1,000 g per 1 hectare; wettable powder added dropwise to water surface the day after sowing; examined on the 21st day after application. A digest of the protocol: (§1)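 Under greenhouse conditions, seeds sown on puddled paddy soil in 100 cm2 pots under 3 cm of standing water received the test compound; injury was assessed with a standard scoring scheme three weeks (day 21) after treatment.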

For assay [2], the system named is early watergrass (Echinochloa oryzicola Vasing). The description is as above. Conditions: paddy field soil application; active ingredient 1,000 g per 1 hectare; wettable powder added dropwise to water surface the day after sowing; examined on the 21st day after application. The procedure, abridged: as §1
Assay [3] has as its system heartshape false pickerelweed (Monochoria vaginalis (Burm.f.) C.Presl). The assay is described as above. Conditions: paddy field soil application; active ingredient 1,000 g per 1 hectare; wettable powder added dropwise to water surface the day after sowing; examined on the 21st day after application. A digest of the protocol:
as §1

Assay [4] deals with barnyardgrass (Echinochloa crus-galli (L.) P. Beauv. var. crus-galli). Kind of assay: Test Example 2: herbicidal effect by soil application to upland field. Conditions: soil surface spray, upland field soil, 1,000 g active ingredient per hectare, 21st day after application. A digest of the protocol:
(§2)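 Greenhouse pot assay with field soil. Freshly sown seeds were covered with soil, then the surface was sprayed with diluted wettable powder: 1,000 g a.i./ha, 1,000 L/ha. Herbicidal effect scored at day 21 by standard criteria.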

For assay [5], the system named is green foxtail (Setaria viridis (L.) P. Beauv.). Described as above. Conditions: soil surface spray, upland field soil, 1,000 g active ingredient per hectare, 21st day after application. The procedure, abridged: as §2
Assay [6] deals with slender amaranth (Amaranthus viridis L.). Described as above. Conditions: soil surface spray, upland field soil, 1,000 g active ingredient per hectare, 21st day after application. A digest of the protocol: as §2
For assay [7], the system named is velvetleaf (Abutilon theophrasti medicus). Described as above. Conditions: soil surface spray, upland field soil, 1,000 g active ingredient per hectare, 21st day after application. A digest of the protocol: as §2
Assay [8] has as its system barnyardgrass (Echinochloa crus-galli (L.) P. Beauv. var. crus-galli). Kind of assay: Test Example 3: herbicidal effect by application to upland field (foliage treatment). The following applies: 14th day after application; for herbicidal effect, Barnyardgrass: foliage treatment, 1,000 g active ingredient per 1 hectare, greenhouse; for herbicidal effect (index), Barnyardgrass: foliage treatment, plants grown two weeks, 1,000 g active ingredient per hectare. The procedure, abridged: (§3)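 A single foliar application of a water-diluted wettable powder, at 1,000 g of active ingredient per hectare, was made to plants raised for two weeks from seed in field soil. Herbicidal activity was judged visually after a further 14 days in the greenhouse.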

For assay [9], the system named is green foxtail (Setaria viridis (L.) P. Beauv.). Described as above. The following applies: 14th day after application; for herbicidal effect, Green Foxtail: foliage treatment, 1,000 g active ingredient per 1 hectare, greenhouse; for herbicidal effect (index), Green Foxtail: foliage treatment, plants grown two weeks, 1,000 g active ingredient per hectare. A digest of the protocol: as §3

Assay [10] has as its system slender amaranth (Amaranthus viridis L.). The description is as above. The following applies: 14th day after application; for herbicidal effect, Slender Amaranth: foliage treatment, 1,000 g active ingredient per 1 hectare, greenhouse; for herbicidal effect (index), Slender Amaranth: foliage treatment, plants grown two weeks, 1,000 g active ingredient per hectare. A digest of the protocol:
as §3

Assay [11] has as its system velvetleaf (Abutilon theophrasti medicus). The assay is described as above. Conditions: 14th day after application; for herbicidal effect, Velvetleaf: foliage treatment, 1,000 g active ingredient per 1 hectare, greenhouse; for herbicidal effect (index), Velvetleaf: foliage treatment, plants grown two weeks, 1,000 g active ingredient per hectare. The procedure, abridged:
as §3

Turning to `COc1ccc(-n2c(C(F)(F)F)ccc(C(=O)C3=C(O)CCCC3=O)c2=O)cc1Cl` [I-110], in assay [1], the “herbicidal effect, Scirpus juncoides Roxb.” value is 5 (90% or more of herbicidal effect and crop phytotoxicity). Further, the “herbicidal effect, Echinochloa oryzicola Vasing” value in [2] is 5 (90% or more of herbicidal effect and crop phytotoxicity). For the same compound, the “herbicidal effect, Monochoria vaginalis (Burm. f.) C. Presl” value (from here on “herbicidal effect, Monochoria vaginalis”) in assay [3] was 5 (90% or more of herbicidal effect and crop phytotoxicity). In addition, the “herbicidal effect (index), Barnyardgrass” value in assay [4] was 5 (90% or more of herbicidal effect and crop phytotoxicity). The “herbicidal effect (index), Green Foxtail” value in assay [5] was 4 (70 to less than 90% of herbicidal effect and crop phytotoxicity). In assay [6], the “herbicidal effect (index), Slender Amaranth” value is 5 (90% or more of herbicidal effect and crop phytotoxicity). For the same compound, the “herbicidal effect (index), Velvetleaf” value in assay [7] was 5 (90% or more of herbicidal effect and crop phytotoxicity). In addition, the “herbicidal effect, Barnyardgrass” value in assay [8] is 5 (90% or more of herbicidal effect and crop phytotoxicity). Further, the “herbicidal effect, Green Foxtail” value in assay [9] was 3 (50 to less than 70% of herbicidal effect and crop phytotoxicity). The “herbicidal effect, Slender Amaranth” value in assay [10] is 5 (90% or more of herbicidal effect and crop phytotoxicity). Moreover, the “herbicidal effect, Velvetleaf” value in assay [11] was 4 (70 to less than 90% of herbicidal effect and crop phytotoxicity).

With `CS(=O)(=O)CCCn1c(C(F)(F)F)ccc(C(=O)C2=C(O)C3CCC(C3)C2=O)c1=O` (centres unmarked) [III-33], the “herbicidal effect, Scirpus juncoides Roxb.” value in [1] is 5 (90% or more of herbicidal effect and crop phytotoxicity). Also, the “herbicidal effect, Echinochloa oryzicola Vasing” value in assay [2] was 5 (90% or more of herbicidal effect and crop phytotoxicity). Further, the “herbicidal effect, Monochoria vaginalis” value in [3] was 5 (90% or more of herbicidal effect and crop phytotoxicity). Besides, the “herbicidal effect (index), Barnyardgrass” value in assay [4] was 4 (70 to less than 90% of herbicidal effect and crop phytotoxicity). Besides, the “herbicidal effect (index), Green Foxtail” value in assay [5] was 5 (90% or more of herbicidal effect and crop phytotoxicity). In addition, the “herbicidal effect (index), Slender Amaranth” value in assay [6] is 5 (90% or more of herbicidal effect and crop phytotoxicity). For the same compound, the “herbicidal effect (index), Velvetleaf” value in assay [7] was 5 (90% or more of herbicidal effect and crop phytotoxicity). Moreover, in assay [8], the “herbicidal effect, Barnyardgrass” value is 5 (90% or more of herbicidal effect and crop phytotoxicity). In addition, the “herbicidal effect, Green Foxtail” value in assay [9] was 5 (90% or more of herbicidal effect and crop phytotoxicity). Moreover, the “herbicidal effect, Slender Amaranth” value in assay [10] was 5 (90% or more of herbicidal effect and crop phytotoxicity). Besides, in assay [11], the “herbicidal effect, Velvetleaf” value was 5 (90% or more of herbicidal effect and crop phytotoxicity).

With `CC(C)(C)S(=O)(=O)Cn1c(C(F)(F)F)ccc(C(=O)C2=C(O)CCCC2=O)c1=O` [I-56], the “herbicidal effect, Scirpus juncoides Roxb.” value in [1] is 5 (90% or more of herbicidal effect and crop phytotoxicity). The “herbicidal effect, Echinochloa oryzicola Vasing” value in [2] is 5 (90% or more of herbicidal effect and crop phytotoxicity). Also, the “herbicidal effect, Monochoria vaginalis” value in [3] is 5 (90% or more of herbicidal effect and crop phytotoxicity). The “herbicidal effect (index), Barnyardgrass” value in [4] is 4 (70 to less than 90% of herbicidal effect and crop phytotoxicity); in assay [8], 5 (90% or more of herbicidal effect and crop phytotoxicity). Besides, the “herbicidal effect (index), Green Foxtail” value in assay [5] is 5 (90% or more of herbicidal effect and crop phytotoxicity); in [9], 5 (90% or more of herbicidal effect and crop phytotoxicity). Moreover, the “herbicidal effect (index), Slender Amaranth” value in assay [6] is 5 (90% or more of herbicidal effect and crop phytotoxicity); in assay [10], 5 (90% or more of herbicidal effect and crop phytotoxicity). Besides, the “herbicidal effect (index), Velvetleaf” value in [7] was 5 (90% or more of herbicidal effect and crop phytotoxicity); in [11], 5 (90% or more of herbicidal effect and crop phytotoxicity).

`COCc1cc(-n2c(C(F)(F)F)ccc(C(=O)C3=C(O)CCCC3=O)c2=O)ccc1F` [I-111]: in assay [1], the “herbicidal effect, Scirpus juncoides Roxb.” value is 5 (90% or more of herbicidal effect and crop phytotoxicity). In addition, the “herbicidal effect, Echinochloa oryzicola Vasing” value in assay [2] is 5 (90% or more of herbicidal effect and crop phytotoxicity). For the same compound, the “herbicidal effect, Monochoria vaginalis” value in [3] is 5 (90% or more of herbicidal effect and crop phytotoxicity). Besides, in assay [4], the “herbicidal effect (index), Barnyardgrass” value is 5 (90% or more of herbicidal effect and crop phytotoxicity). Moreover, in [5], the “herbicidal effect (index), Green Foxtail” value is 5 (90% or more of herbicidal effect and crop phytotoxicity). Also, the “herbicidal effect (index), Slender Amaranth” value in assay [6] is 5 (90% or more of herbicidal effect and crop phytotoxicity). Moreover, the “herbicidal effect (index), Velvetleaf” value in [7] is 5 (90% or more of herbicidal effect and crop phytotoxicity). Moreover, in assay [8], the “herbicidal effect, Barnyardgrass” value is 5 (90% or more of herbicidal effect and crop phytotoxicity). For the same compound, the “herbicidal effect, Green Foxtail” value in assay [9] is 5 (90% or more of herbicidal effect and crop phytotoxicity). Further, in assay [10], the “herbicidal effect, Slender Amaranth” value was 5 (90% or more of herbicidal effect and crop phytotoxicity). Besides, the “herbicidal effect, Velvetleaf” value in [11] was 5 (90% or more of herbicidal effect and crop phytotoxicity).

For the compound `CCCCn1c(C(F)(F)F)ccc(C(=O)C2=C(O)CCCC2=O)c1=O` [I-5], the “herbicidal effect, Scirpus juncoides Roxb.” value in assay [1] is 5 (90% or more of herbicidal effect and crop phytotoxicity). Moreover, the “herbicidal effect, Echinochloa oryzicola Vasing” value in assay [2] is 5 (90% or more of herbicidal effect and crop phytotoxicity). For the same compound, the “herbicidal effect, Monochoria vaginalis” value in [3] was 5 (90% or more of herbicidal effect and crop phytotoxicity). Besides, the “herbicidal effect (index), Barnyardgrass” value in assay [4] was 5 (90% or more of herbicidal effect and crop phytotoxicity); in [8], 5 (90% or more of herbicidal effect and crop phytotoxicity). In addition, the “herbicidal effect (index), Green Foxtail” value in assay [5] was 5 (90% or more of herbicidal effect and crop phytotoxicity); in [9], 5 (90% or more of herbicidal effect and crop phytotoxicity). Moreover, the “herbicidal effect (index), Slender Amaranth” value in assay [6] is 5 (90% or more of herbicidal effect and crop phytotoxicity); in assay [10], 5 (90% or more of herbicidal effect and crop phytotoxicity). The “herbicidal effect (index), Velvetleaf” value in assay [7] is 5 (90% or more of herbicidal effect and crop phytotoxicity); in [11] it was 5 (90% or more of herbicidal effect and crop phytotoxicity).

For the compound `Cn1c(C(F)(F)F)ccc(C(=O)C2=C(O)CCCC2=O)c1=O` [I-1, 2-[1,2-dihydro-1-methyl-2-oxo-6-(trifluoromethyl)-pyridine-3-carbonyl]-3-hydroxy-2-cyclohexen-1-one], in assay [1], the “herbicidal effect, Scirpus juncoides Roxb.” value was 5 (90% or more of herbicidal effect and crop phytotoxicity). Further, the “herbicidal effect, Echinochloa oryzicola Vasing” value in assay [2] is 5 (90% or more of herbicidal effect and crop phytotoxicity). In assay [3], the “herbicidal effect, Monochoria vaginalis” value was 5 (90% or more of herbicidal effect and crop phytotoxicity). The “herbicidal effect (index), Barnyardgrass” value is 5 (90% or more of herbicidal effect and crop phytotoxicity) in assay [4]; 4 (70 to less than 90% of herbicidal effect and crop phytotoxicity) in assay [8]. The “herbicidal effect (index), Green Foxtail” value in [5] is 4 (70 to less than 90% of herbicidal effect and crop phytotoxicity); in assay [9] it was 3 (50 to less than 70% of herbicidal effect and crop phytotoxicity). The “herbicidal effect (index), Slender Amaranth” value is 5 (90% or more of herbicidal effect and crop phytotoxicity) in assay [6]; 5 (90% or more of herbicidal effect and crop phytotoxicity) in [10]. For the same compound, the “herbicidal effect (index), Velvetleaf” value in assay [7] is 5 (90% or more of herbicidal effect and crop phytotoxicity); in assay [11] it was 5 (90% or more of herbicidal effect and crop phytotoxicity).

For the compound `CCCCn1c(C(F)(F)F)ccc(C(=O)C2=C(O)C3CCC(C3)C2=O)c1=O` (centres unmarked) [III-6], in [1], the “herbicidal effect, Scirpus juncoides Roxb.” value was 5 (90% or more of herbicidal effect and crop phytotoxicity). The “herbicidal effect, Echinochloa oryzicola Vasing” value in assay [2] was 5 (90% or more of herbicidal effect and crop phytotoxicity). In addition, in assay [3], the “herbicidal effect, Monochoria vaginalis” value was 5 (90% or more of herbicidal effect and crop phytotoxicity). The “herbicidal effect (index), Barnyardgrass” value in assay [4] is 5 (90% or more of herbicidal effect and crop phytotoxicity). Further, the “herbicidal effect (index), Green Foxtail” value in assay [5] was 5 (90% or more of herbicidal effect and crop phytotoxicity). Moreover, the “herbicidal effect (index), Slender Amaranth” value in assay [6] was 5 (90% or more of herbicidal effect and crop phytotoxicity). Also, in assay [7], the “herbicidal effect (index), Velvetleaf” value is 5 (90% or more of herbicidal effect and crop phytotoxicity). Also, the “herbicidal effect, Barnyardgrass” value in [8] was 5 (90% or more of herbicidal effect and crop phytotoxicity). Also, the “herbicidal effect, Green Foxtail” value in [9] was 5 (90% or more of herbicidal effect and crop phytotoxicity). In addition, the “herbicidal effect, Slender Amaranth” value in [10] was 5 (90% or more of herbicidal effect and crop phytotoxicity). Also, in assay [11], the “herbicidal effect, Velvetleaf” value is 5 (90% or more of herbicidal effect and crop phytotoxicity).

The record behind these values is patent US8076487B2, “Pyridone derivative and herbicide” (Kumiai Chemical Industry Co., Ltd., priority 2006, dated 2011).
